In US20250129092A1, “COMPOUNDS USEFUL IN MODULATION OF AHR SIGNALLING” (JAGUAHR THERAPEUTICS PTE LTD, priority 2021, published 2025):

Target: T1, AhR (Homo sapiens, UniProt P35869)
T1 sequence (P35869 11-848): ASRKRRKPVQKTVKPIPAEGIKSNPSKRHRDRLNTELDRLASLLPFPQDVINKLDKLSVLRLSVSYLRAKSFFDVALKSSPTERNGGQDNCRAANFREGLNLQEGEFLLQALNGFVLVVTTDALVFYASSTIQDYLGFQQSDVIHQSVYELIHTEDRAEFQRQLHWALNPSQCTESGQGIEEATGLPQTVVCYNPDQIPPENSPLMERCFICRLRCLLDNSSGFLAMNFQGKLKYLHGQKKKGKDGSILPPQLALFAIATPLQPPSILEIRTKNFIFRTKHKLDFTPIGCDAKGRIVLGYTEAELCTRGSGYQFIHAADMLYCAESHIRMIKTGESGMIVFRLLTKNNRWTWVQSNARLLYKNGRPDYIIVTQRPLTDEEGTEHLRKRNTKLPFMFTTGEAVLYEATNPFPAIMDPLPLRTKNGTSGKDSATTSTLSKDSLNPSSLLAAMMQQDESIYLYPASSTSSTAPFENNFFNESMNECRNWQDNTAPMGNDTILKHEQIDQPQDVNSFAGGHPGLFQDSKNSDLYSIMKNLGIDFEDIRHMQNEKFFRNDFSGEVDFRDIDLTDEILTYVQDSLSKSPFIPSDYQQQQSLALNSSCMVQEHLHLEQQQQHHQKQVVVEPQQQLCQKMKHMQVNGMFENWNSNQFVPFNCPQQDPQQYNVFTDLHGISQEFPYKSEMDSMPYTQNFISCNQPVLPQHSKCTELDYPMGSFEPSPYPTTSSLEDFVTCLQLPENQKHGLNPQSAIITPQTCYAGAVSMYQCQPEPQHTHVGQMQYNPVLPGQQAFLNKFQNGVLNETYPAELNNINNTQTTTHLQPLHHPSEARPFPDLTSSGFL
Experiment: AhR antagonism in U937 cells (Promega P450-Glo assay)
Assay type: cell-based
Parameters: endogenous in cells; host or cells: U937 cells
Conditions: CYP1A1 activity readout (Luciferin-CEE), head names VAF347, average, read-out: U937 Antagonist pIC50-VAF347: av. pIC50 (converted)
Procedure: In Vitro Assay 1: AhR Antagonism in U937 Cells (Promega P450-Glo™ Assay)
AhR antagonism was assessed in LJ937 cells (myeloid lineage cell line derived from a human histiocytic lymphoma). Ligand binds the AhR in the cytoplasm, and the AhR-ligand complex translocates to the nucleus and forms a heterodimer with AhR nuclear translocator (Arnt). This complex binds the xenobiotic response element (XRE) in the 5′ upstream region of the CYP1A1 promoter, enhancing CYP1A1 expression. CYP1A1 activity is subsequently determined by assessing the conversion of Luciferin-CEE to luciferin, which in turn reacts with luciferase to produce light. The amount of light produced is directly proportional to cytochrome P450 activity. U937 cells in Ultraculture serum free media (Lonza) were plated at 100,000 cells per well in a round bottom 96 well tissue culture plate. […] The plates were then placed in an incubator at 37° C., ≥85% humidity, 5% CO2 for 24 hrs. After aspiration of the supernatant the CYP1A1 substrate Luciferin-CEE ([Final] 83 μM) was added and incubated for 3 hrs before the reaction was stopped by adding luciferin detection reagent and luminescence was read after 20 minutes.

| IC50 | Compound |
| --- | --- |
| 66.1 nM | Cc1ncc(-c2nc3c(c(N[C@@H]4CCc5[nH]c6ccccc6c5C4)n2)OCC(CN(C)C)N3)s1 (mixture of isomers) [Example 38, 7-[(dimethylamino)methyl]-2-(2-methylthiazol-5-yl)-N-[(3R)-2,3,4,9-tetrahydro-1H-carbazol-3-yl]-7,8-dihydro-6H-pyrimido[5,4-b][1,4]oxazin-4-amine] |
| 339 nM | Cc1ncc(-c2nc3c(c(N[C@@H]4Cc5cccc6[nH]cc(c56)C4)n2)OCCN3)s1 (single isomer, unassigned) [Example 61] |
| 50.1 nM | Cc1ncc(-c2nc3c(c(N[C@H]4Cc5cccc6[nH]cc(c56)C4)n2)OCCN3)s1 (single isomer, unassigned) [Example 62] |
| 0.724 nM | Fc1cncc(-c2nc3c(c(NCCc4c[nH]c5ccccc45)n2)OCCN3)c1 [Example 1, 2-(5-fluoro-3-pyridyl)-N-[2-(1H-indol-3-yl)ethyl]-7,8-dihydro-6H-pyrimido[5,4-b][1,4]oxazin-4-amine] |
| 89.1 nM | Cc1ccc(-c2nc3c(c(NCCc4c[nH]c5ccccc45)n2)OCCN3)cn1 [Example 15, N-[2-(1H-indol-3-yl)ethyl]-2-(6-methyl-3-pyridyl)-7,8-dihydro-6H-pyrimido[5,4-b][1,4]oxazin-4-amine] |
| 33.1 nM | Cc1ncc(-c2nc3c(c(NCCc4c[nH]c5ccccc45)n2)OCCN3)cc1F [Example 16, 2-(5-fluoro-6-methyl-3-pyridyl)-N-[2-(1H-indol-3-yl)ethyl]-7,8-dihydro-6H-pyrimido[5,4-b][1,4]oxazin-4-amine] |
| 447 nM | O=c1ccc(-c2nc3c(c(NCCc4c[nH]c5ccccc45)n2)OCCN3)c[nH]1 [Example 18, 5-[4-[2-(1H-indol-3-yl)ethylamino]-7,8-dihydro-6H-pyrimido[5,4-b][1,4]oxazin-2-yl]-1H-pyridin-2-one] |
| 457 nM | COc1ncc(C)cc1-c1nc2c(c(NCCc3c[nH]c4ccccc34)n1)OCCN2 [Example 23, N-[2-(1H-indol-3-yl)ethyl]-2-(2-methoxy-5-methyl-3-pyridyl)-7,8-dihydro-6H-pyrimido[5,4-b][1,4]oxazin-4-amine] |
| 16.2 nM | CC1(C)COc2c(NCCc3c[nH]c4ccccc34)nc(-c3cncc(F)c3)nc2N1 [Example 31, 2-(5-fluoro-3-pyridyl)-N-[2-(1H-indol-3-yl)ethyl]-7,7-dimethyl-6,8-dihydropyrimido[5,4-b][1,4]oxazin-4-amine] |
| 89.1 nM | Cc1ncc(-c2nc(N[C@@H]3CCc4[nH]c5ccccc5c4C3)c3c(n2)N(S(C)(=O)=O)CCO3)s1 [Example 39, 8-methylsulfonyl-2-(2-methylthiazol-5-yl)-N-[(3R)-2,3,4,9-tetrahydro-1H-carbazol-3-yl]-6,7-dihydropyrimido[5,4-b][1,4]oxazin-4-amine] |
| 15.1 nM | O=c1[nH]cccc1-c1nc2c(c(NCCc3c(Cl)[nH]c4ccccc34)n1)OCCN2 [Example 40, 3-(4-((2-(2-chloro-1H-indol-3-yl)ethyl)amino)-7,8-dihydro-6H-pyrimido[5,4-b][1,4]oxazin-2-yl)pyridin-2(1H)-one] |
| 19.5 nM | Cc1[nH]c2c(F)cccc2c1CCNc1nc(-c2ccc[nH]c2=O)nc2c1OCCN2 [Example 41, 3-[4-[2-(7-fluoro-2-methyl-1H-indol-3-yl)ethylamino]-7,8-dihydro-6H-pyrimido[5,4-b][1,4]oxazin-2-yl]-1H-pyridin-2-one] |
| 209 nM | Cc1[nH]c2c(F)cc(F)cc2c1CCNc1nc(-c2ccc[nH]c2=O)nc2c1OCCN2 [Example 42, 3-(4-((2-(5,7-difluoro-2-methyl-1H-indol-3-yl)ethyl)amino)-7,8-dihydro-6H-pyrimido[5,4-b][1,4]oxazin-2-yl)pyridin-2-ol] |
| 7.08 nM | Oc1ncccc1-c1nc2c(c(NCCc3c[nH]c4cc(OC(F)(F)F)ccc34)n1)OCCN2 [Example 43, 3-(4-((2-(6-(trifluoromethoxy)-1H-indol-3-yl)ethyl)amino)-7,8-dihydro-6H-pyrimido[5,4-b][1,4]oxazin-2-yl)pyridin-2(1H)-one] |
| 3.24 nM | COC[C@@H]1COc2c(NCCc3c[nH]c4cc(F)ccc34)nc(-c3ccc[nH]c3=O)nc2N1 [Example 47, (R)-3-(4-((2-(6-fluoro-1H-indol-3-yl)ethyl)amino)-7-(methoxymethyl)-7,8-dihydro-6H-pyrimido[5,4-b][1,4]oxazin-2-yl)pyridin-2(1H)-one] |
| 204 nM | Cc1ncc(-c2nc3c(c(N[C@@H]4CCc5[nH]c6ccccc6c5C4)n2)OCCN3)s1 [Example 51, 2-(2-methylthiazol-5-yl)-N-[(3R)-2,3,4,9-tetrahydro-1H-carbazol-3-yl]-7,8-dihydro-6H-pyrimido[5,4-b][1,4]oxazin-4-amine] |
| 17.8 nM | Cc1nc(C)c(-c2nc3c(c(NCCc4c[nH]c5ccccc45)n2)OCCN3)s1 [Example 52, 2-(2,4-dimethylthiazol-5-yl)-N-[2-(1H-indol-3-yl)ethyl]-7,8-dihydro-6H-pyrimido[5,4-b][1,4]oxazin-4-amine] |
| 347 nM | Cn1cc(-c2nc3c(c(NCCc4c[nH]c5ccccc45)n2)OCCN3)ccc1=O [Example 58, 5-[4-[2-(1H-indol-3-yl)ethylamino]-7,8-dihydro-6H-pyrimido[5,4-b][1,4]oxazin-2-yl]-1-methyl-pyridin-2-one] |
| > 813 nM | COc1ncc(F)cc1-c1nc2c(c(N[C@@H]3CCc4[nH]c5ccccc5c4C3)n1)OCCN2 [Example 65, 2-(5-fluoro-2-methoxy-3-pyridyl)-N-[(3R)-2,3,4,9-tetrahydro-1H-carbazol-3-yl]-7,8-dihydro-6H-pyrimido[5,4-b][1,4]oxazin-4-amine] |
| 66.1 nM | COc1ncc(F)cc1-c1nc2c(c(NCCc3c[nH]c4ccccc34)n1)OCCN2 [Example 67, 2-(5-fluoro-2-methoxy-3-pyridyl)-N-[2-(1H-indol-3-yl)ethyl]-7,8-dihydro-6H-pyrimido[5,4-b][1,4]oxazin-4-amine] |
| 33.1 nM | Cc1c[nH]c(=O)c(-c2nc3c(c(NCCc4c[nH]c5ccccc45)n2)OCCN3)c1 [Example 68, 3-[4-[2-(1H-indol-3-yl)ethylamino]-7,8-dihydro-6H-pyrimido[5,4-b][1,4]oxazin-2-yl]-5-methyl-pyridin-2-ol] |
| 81.3 nM | O=c1[nH]cc(C(F)(F)F)cc1-c1nc2c(c(NCCc3c[nH]c4ccccc34)n1)OCCN2 [Example 69, 3-(4-((2-(1H-indol-3-yl)ethyl)amino)-7,8-dihydro-6H-pyrimido[5,4-b][1,4]oxazin-2-yl)-5-(trifluoromethyl)pyridin-2 (1H)-one] |
| 14.8 nM | O=c1[nH]cc(Cl)cc1-c1nc2c(c(NCCc3c[nH]c4ccccc34)n1)OCCN2 [Example 72, 3-(4-((2-(1H-indol-3-yl)ethyl)amino)-7,8-dihydro-6H-pyrimido[5,4-b][1,4]oxazin-2-yl)-5-chloropyridin-2-ol] |

Target: T1, AhR
Experiment: AhR antagonism in human PBMCs - inhibition of IL-22 release
Assay type: cell-based
Parameters: endogenous in cells
Conditions: human PBMCs activated with CD3/CD28 agonist mixture, 72 hrs, IL-22 ELISA; average; read-out: hPBMC Inhibition of CD3/CD28 induced IL-22 release: av. pIC50 (converted)
Text: In Vitro Assay 3: AhR Antagonism in Human Peripheral Blood Mononuclear Cells (PBMCs)-Inhibition of Interleukin-22 (IL-22) Release.
PBMCs were isolated from human peripheral blood using Lymphoprep™ and diluted to 1×10^6 cells per ml in RPMI media containing […] foetal bovine serum, 1% penicillin-streptomycin and 1% non essential amino acids. PBMCs were subsequently activated with 1p1 per 100,000 cells of a CD3/CD28 agonist mixture (human T Cell TransAct™ (Miltenyi Biotec)) and then plated at 100,000 cells per well in a round bottom 96 well tissue culture plate. One hour after stimulation seven concentrations of each test compound or vehicle (final [DMSO] 0.2%) were added. The plates were then placed in an incubator at 37° C., ≥85% humidity, 5% […] for 72 hrs before the media was removed and stored at −20° C. until cytokine analysis. IL-22 was measured using human IL-22 DuoSet ELISA (R&D systems) according to the manufacturer's instructions.

| IC50 | Compound |
| --- | --- |
| 89.1 nM | Cc1ncc(-c2nc3c(c(N[C@@H]4CCc5[nH]c6ccccc6c5C4)n2)OCC(CN(C)C)N3)s1 (mixture of isomers) [Example 38, 7-[(dimethylamino)methyl]-2-(2-methylthiazol-5-yl)-N-[(3R)-2,3,4,9-tetrahydro-1H-carbazol-3-yl]-7,8-dihydro-6H-pyrimido[5,4-b][1,4]oxazin-4-amine] |
| 1260 nM | Cc1ncc(-c2nc3c(c(N[C@@H]4Cc5cccc6[nH]cc(c56)C4)n2)OCCN3)s1 (single isomer, unassigned) [Example 61] |
| 132 nM | Cc1ncc(-c2nc3c(c(N[C@H]4Cc5cccc6[nH]cc(c56)C4)n2)OCCN3)s1 (single isomer, unassigned) [Example 62] |
| 1.91 nM | Fc1cncc(-c2nc3c(c(NCCc4c[nH]c5ccccc45)n2)OCCN3)c1 [Example 1, 2-(5-fluoro-3-pyridyl)-N-[2-(1H-indol-3-yl)ethyl]-7,8-dihydro-6H-pyrimido[5,4-b][1,4]oxazin-4-amine] |
| > 2000 nM | Cn1cc(-c2nc3c(c(NCCc4c[nH]c5ccccc45)n2)OCCN3)nn1 [Example 55, N-[2-(1H-indol-3-yl)ethyl]-2-(1-methyltriazol-4-yl)-7,8-dihydro-6H-pyrimido[5,4-b][1,4]oxazin-4-amine] |
